Experiment [1] deals with T1, α/β-hydrolase domain 3 (ABHD3) (Homo sapiens, UniProt Q8WU67).
T1 sequence (Q8WU67 1-409): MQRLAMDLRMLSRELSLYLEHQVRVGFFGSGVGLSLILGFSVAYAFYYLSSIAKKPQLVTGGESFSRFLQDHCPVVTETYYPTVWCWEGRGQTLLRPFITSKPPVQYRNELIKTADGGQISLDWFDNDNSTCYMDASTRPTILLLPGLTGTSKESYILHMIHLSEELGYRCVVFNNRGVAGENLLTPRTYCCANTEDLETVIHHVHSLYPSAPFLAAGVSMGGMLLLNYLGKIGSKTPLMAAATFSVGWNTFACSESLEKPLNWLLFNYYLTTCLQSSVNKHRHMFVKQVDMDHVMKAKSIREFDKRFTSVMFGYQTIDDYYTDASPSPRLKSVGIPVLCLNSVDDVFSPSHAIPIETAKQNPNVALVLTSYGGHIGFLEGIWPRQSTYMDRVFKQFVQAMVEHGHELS
As to the kind of experiment: competitive gel-based ABPP (FP-rhodamine) in HEK […] lysate overexpressing human ABHD3; also in situ (IC50 […]) and ABPP-SILAC in SW620 cells. The experiment is classed as biochemical.

Experiment [2] deals with T1, α/β-hydrolase domain 3 (ABHD3). The experiment in a line: competitive gel-based ABPP (mouse brain proteome; follow-up in HEK […] lysates expressing ABHD3). The experiment is classed as cell-based.

The term IC50 denotes the point on the concentration scale where inhibition reaches its midpoint. Read a high IC50 as a need for much substance. For `C[N+]12CC(=O)O[B-]1(CC(C#N)N(Cc1ccc(F)cc1Cl)C(=O)c1ccccc1)OC(=O)C2` (racemic) [4j], the IC50 in experiment [1] was found to be 0.14 µM.

With `Cc1ccc(CN(C(=O)c2ccccc2)C(C#N)C[B-]23OC(=O)C[N+]2(C)CC(=O)O3)cc1` (stereo not drawn) [4g], in experiment [2], the “competitive gel-based ABPP (mouse brain proteome); follow-up in HEK 293T lysates” value was “Compound 4j appears equipotent with compounds 4h and 4g against ABHD3, but is more selective against ABHD10”. Same read-out and setting: with `C[N+]12CC(=O)O[B-]1(CC(C#N)N(Cc1ccccc1Cl)C(=O)c1ccccc1)OC(=O)C2` (stereo not drawn) [4h] the entry was “Compound 4j appears equipotent with compounds 4h and 4g against ABHD3, but is more selective against ABHD10”.

The values are drawn from paper PMC5701053, “Multicomponent mapping of boron chemotypes furnishes selective enzyme inhibitors” (Nature Communications, 2017).
